From US20020137929A1, “1 - (3-heterocyclylphenyl) isothiourea, -isourea, -guanidine and -amidine herbicidal agents” (Intellectual Property Department, BASF Aktiengesellschaft, priority 1998, published 2002)

How the values were obtained:
CASOB (Sicklepod) = experiment: Postemergence herbicidal evaluation; format: in vivo, Cassia obtusifolia; conditions: postemergence
Summary of the method: (§1)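 ~2-wk seedlings; postemergence spray, 40 psi; vehicle 1:1 acetone:water + 0.5% Tween 20; rate ≈0.0156–0.500 kg/ha; greenhouse hold; scored 4–5 wk after treatment, 0–9 scale vs control; repeat tests averaged.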

[1] = system: CHEAL (Lambsquarters, Common); experiment: Postemergence herbicidal evaluation; format: in vivo, Chenopodium album; conditions: postemergence
Summary of the method: as §1

ECHCG (Barnyardgrass) = experiment: Postemergence herbicidal evaluation; format: in vivo, Echinochloa crus-galli; conditions: postemergence
Summary of the method: as §1

ORYSAT (Rice, Tebonnet) [2] = experiment: Postemergence herbicidal evaluation; format: in vivo, Oryza sativa, (L.) Tebonnet; conditions: postemergence
Summary of the method: as §1

GALAP (Galium) = experiment: Preemergence herbicidal evaluation; format: in vivo, Galium aparine; conditions: rated 4-5 weeks after treatment; for GALAP rating: preemergence, 0-9 scale
Summary of the method: (§2)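 Seeds were planted in potting soil in cups, then sprayed preemergence with the test compound in aqueous acetone at about 0.0156 to 0.500 kg per hectare. Cups were kept under greenhouse conditions and visually rated 4–5 weeks after treatment on a 0–9 scale against an untreated control.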

SETVI (Foxtail, Green) = experiment: Preemergence herbicidal evaluation; format: in vivo, Setaria viridis; conditions: rated 4-5 weeks after treatment; for SETVI rating: preemergence, 0-9 scale
Summary of the method: as §2

[3] = system: GLXMAW (Soybean, Williams); experiment: Preemergence herbicidal evaluation; format: in vivo, Glycine max, (L.) Merr. cv Williams; conditions: rated 4-5 weeks after treatment; for GLXMAW rating: preemergence, 0-9 scale
Summary of the method: as §2

ORYSAT (Rice, Tebonnet) [4] = experiment: Preemergence herbicidal evaluation; format: in vivo, Oryza sativa, (L.) Tebonnet; conditions: rated 4-5 weeks after treatment; for ORYSAT rating: preemergence, 0-9 scale
Summary of the method: as §2

[5] = system: TRZAWR (Wheat, Winter, cv Riband); experiment: Preemergence herbicidal evaluation; format: in vivo, Triticum aestivum; conditions: rated 4-5 weeks after treatment; for TRZAWR rating: preemergence, 0-9 scale
Summary of the method: as §2

ZEAMX (Corn, Field) = experiment: Preemergence herbicidal evaluation; format: in vivo, Zea mays; conditions: rated 4-5 weeks after treatment; for ZEAMX rating: preemergence, 0-9 scale
Summary of the method: as §2

CYPIR (Rice Flatsedge) = experiment: Preemergence weed control under flooded paddy conditions; format: in vivo, Cyperus iria; conditions: rated 3-4 weeks after treatment
Summary of the method: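 Seeds or propagules sown in silt loam kept flooded 1.5-3 cm; compounds in 50/50 acetone/water pipetted into flood water at about 0.0313 to 0.500 kg/ha. Greenhouse; visual 0-9 rating versus untreated control 3-4 weeks after treatment.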

MOOVA (Monochoria) = experiment: as above; format: in vivo, Monochoria vaginalis; conditions: rated 3-4 weeks after treatment
Summary of the method: (§3)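 Ratings on a 0-9 visual scale cover stand, vigor, malformation, size, chlorosis and overall appearance relative to a control, taken three to four weeks post-treatment. Application was into flood water over freshly sown silt loam at roughly 0.0313 to 0.500 kg/ha.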

[6] = system: SAGPY (Arrowhead (Pygmaea)); experiment: as above; format: in vivo, Sagittaria pygmaea; conditions: rated 3-4 weeks after treatment
Summary of the method: as §3

CYPSE (Flatsedge) = experiment: Postemergence weed control under flooded paddy conditions; format: in vivo, Cyperus serotinus; conditions: postemergence weeds
Summary of the method: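 Weeds 3 to 5 cm tall and rice seedlings at the 1.5 to 2.5 leaf stage were flooded, with water held 1.5 to 3 cm above the soil. Compounds in 50/50 v/v aqueous/acetone went into the flood water at about 0.0313 to 0.500 kg/ha. Visual 0-9 ratings versus control were made 3 to 4 weeks later.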

Work on `CCOC(=O)CN1C(=O)C(=C2CCCC2)SC1=Nc1cc(-n2c(=O)cc(C(F)(F)F)n(C)c2=O)c(F)cc1Cl` [Compound 18, Ethyl 2-{{2-chloro-5-[3,6-dihydro-3-methyl-2,6-dioxo-4-(trifluoromethyl)-1(2H)-pyrimidinyl]-4-fluorophenyl}imino}-5-cyclopentylidene-4-oxo-3-thiazolidineacetate] yielded a CASOB herbicidal rating (CASOB (Sicklepod); rate 0.0158 kg/ha) of 0.0, a CASOB herbicidal rating (CASOB (Sicklepod); rate 0.0315 kg/ha) of 1.0 and a CASOB herbicidal rating (CASOB (Sicklepod); rate 0.0630 kg/ha) of 1.0. The CHEAL herbicidal rating ([1]; rate 0.0158 kg/ha) was 6.0, the CHEAL herbicidal rating ([1]; rate 0.0315 kg/ha) was 9.0 and the CHEAL herbicidal rating ([1]; rate 0.0630 kg/ha) was 9.0. It also gave an ECHCG herbicidal rating (ECHCG (Barnyardgrass); rate 0.0158 kg/ha) of 1.0, an ECHCG herbicidal rating (ECHCG (Barnyardgrass); rate 0.0315 kg/ha) of 1.0 and an ECHCG herbicidal rating (ECHCG (Barnyardgrass); rate 0.0630 kg/ha) of 2.0. For the same compound, the ORYSAT herbicidal rating (ORYSAT (Rice, Tebonnet) [2]; rate 0.0158 kg/ha) was 2.0, the ORYSAT herbicidal rating (ORYSAT (Rice, Tebonnet) [2]; rate 0.0315 kg/ha) was 1.5 and the ORYSAT herbicidal rating (ORYSAT (Rice, Tebonnet) [2]; rate 0.0630 kg/ha) was 1.5. For the same compound, the “GALAP preemergence herbicidal rating” value (GALAP (Galium); rate 0.1250 kg/ha) was 0.0, the “GALAP preemergence herbicidal rating” value (GALAP (Galium); rate 0.2500 kg/ha) was 9.0 and the “SETVI preemergence herbicidal rating” value (SETVI (Foxtail, Green); rate 0.1250 kg/ha) was 0.0. For the same compound, the “SETVI preemergence herbicidal rating” value (SETVI (Foxtail, Green); rate 0.2500 kg/ha) was 2.0, the “GLXMAW preemergence herbicidal rating” value ([3]; rate 0.1250 kg/ha) was 0.0 and the “GLXMAW preemergence herbicidal rating” value ([3]; rate 0.2500 kg/ha) was 3.0. The “ORYSAT preemergence herbicidal rating” value (ORYSAT (Rice, Tebonnet) [4]; rate 0.1250 kg/ha) was 0.0, the “ORYSAT preemergence herbicidal rating” value (ORYSAT (Rice, Tebonnet) [4]; rate 0.2500 kg/ha) was 0.0 and the “TRZAWR preemergence herbicidal rating” value ([5]; rate 0.1250 kg/ha) was 0.0. For the same compound, the “TRZAWR preemergence herbicidal rating” value ([5]; rate 0.2500 kg/ha) was 0.0, the “ZEAMX preemergence herbicidal rating” value (ZEAMX (Corn, Field); rate 0.1250 kg/ha) was 0.0 and the “ZEAMX preemergence herbicidal rating” value (ZEAMX (Corn, Field); rate 0.2500 kg/ha) was 0.0. The “Herbicidal rating CYPIR” value (CYPIR (Rice Flatsedge); 0.1160 kg/ha) was 0.0, the “Herbicidal rating CYPIR” value (CYPIR (Rice Flatsedge); 0.2310 kg/ha) was 0.0 and the “Herbicidal rating CYPIR” value (CYPIR (Rice Flatsedge); 0.4630 kg/ha) was 0.0. The “Herbicidal rating MOOVA” value (MOOVA (Monochoria); 0.1160 kg/ha) was 9.0, the “Herbicidal rating MOOVA” value (MOOVA (Monochoria); 0.2310 kg/ha) was 9.0 and the “Herbicidal rating MOOVA” value (MOOVA (Monochoria); 0.4630 kg/ha) was 9.0. For the same compound, the “Herbicidal rating SAGPY” value ([6]; 0.1160 kg/ha) was 0.0, the “Herbicidal rating SAGPY” value ([6]; 0.2310 kg/ha) was 0.0 and the “Herbicidal rating SAGPY” value ([6]; 0.4630 kg/ha) was 6.0. For the same compound, the “Herbicidal rating CYPSE” value (CYPSE (Flatsedge); rate 0.1160 kg/ha, 3-4 weeks after treatment) was 0.0, the “Herbicidal rating CYPSE” value (CYPSE (Flatsedge); rate 0.2310 kg/ha, 3-4 weeks after treatment) was 0.0 and the “Herbicidal rating CYPSE” value (CYPSE (Flatsedge); rate 0.4630 kg/ha, 3-4 weeks after treatment) was 4.0.

For `CN1C(=O)C(CC(N)=O)SC1=Nc1cc(-n2c(=O)cc(C(F)(F)F)n(C)c2=O)c(F)cc1Cl` (stereo not shown) [Compound 92, 2-{{2-Chloro-5-[3,6-dihydro-3-methyl-2,6-dioxo-4-(trifluoromethyl)-1(2H)-pyrimidinyl]-4-fluorophenyl}imino}-3-methyl-4-oxo-5-thiazolidineacetamide], the CASOB herbicidal rating (CASOB (Sicklepod); rate 0.0158 kg/ha) was 3.0, the CASOB herbicidal rating (CASOB (Sicklepod); rate 0.0315 kg/ha) was 5.0 and the CASOB herbicidal rating (CASOB (Sicklepod); rate 0.0630 kg/ha) was 9.0. For the same compound, the CHEAL herbicidal rating ([1]; rate 0.0158 kg/ha) was 2.0, the CHEAL herbicidal rating ([1]; rate 0.0315 kg/ha) was 9.0 and the CHEAL herbicidal rating ([1]; rate 0.0630 kg/ha) was 9.0. The ECHCG herbicidal rating (ECHCG (Barnyardgrass); rate 0.0158 kg/ha) was 0.0, the ECHCG herbicidal rating (ECHCG (Barnyardgrass); rate 0.0315 kg/ha) was 1.0 and the ECHCG herbicidal rating (ECHCG (Barnyardgrass); rate 0.0630 kg/ha) was 1.0. For the same compound, the ORYSAT herbicidal rating (ORYSAT (Rice, Tebonnet) [2]; rate 0.0158 kg/ha) was 1.5, the ORYSAT herbicidal rating (ORYSAT (Rice, Tebonnet) [2]; rate 0.0315 kg/ha) was 2.0 and the ORYSAT herbicidal rating (ORYSAT (Rice, Tebonnet) [2]; rate 0.0630 kg/ha) was 3.5. It also gave a GALAP rating (GALAP (Galium); 0.0156 kg/ha) of 0.0, a GALAP rating (GALAP (Galium); 0.0313 kg/ha) of 0.0 and a GALAP rating (GALAP (Galium); 0.0625 kg/ha) of 0.0. For the same compound, the GALAP rating (GALAP (Galium); 0.1250 kg/ha) was 9.0, the GALAP rating (GALAP (Galium); 0.2500 kg/ha) was 9.0 and the SETVI rating (SETVI (Foxtail, Green); 0.0156 kg/ha) was 0.0. For the same compound, the SETVI rating (SETVI (Foxtail, Green); 0.0313 kg/ha) was 0.0, the SETVI rating (SETVI (Foxtail, Green); 0.0625 kg/ha) was 0.0 and the SETVI rating (SETVI (Foxtail, Green); 0.1250 kg/ha) was 0.0. The SETVI rating (SETVI (Foxtail, Green); 0.2500 kg/ha) was 9.0, the GLXMAW rating ([3]; 0.0156 kg/ha) was 0.0 and the GLXMAW rating ([3]; 0.0313 kg/ha) was 0.0. The GLXMAW rating ([3]; 0.0625 kg/ha) was 0.0, the GLXMAW rating ([3]; 0.1250 kg/ha) was 1.0 and the GLXMAW rating ([3]; 0.2500 kg/ha) was 5.0. For the same compound, the ORYSAT rating (ORYSAT (Rice, Tebonnet) [4]; 0.0156 kg/ha) was 0.0, the ORYSAT rating (ORYSAT (Rice, Tebonnet) [4]; 0.0313 kg/ha) was 0.0 and the ORYSAT rating (ORYSAT (Rice, Tebonnet) [4]; 0.0625 kg/ha) was 0.0. The ORYSAT rating (ORYSAT (Rice, Tebonnet) [4]; 0.1250 kg/ha) was 0.0, the ORYSAT rating (ORYSAT (Rice, Tebonnet) [4]; 0.2500 kg/ha) was 5.0 and the TRZAWR rating ([5]; 0.0156 kg/ha) was 0.0. For the same compound, the TRZAWR rating ([5]; 0.0313 kg/ha) was 0.0, the TRZAWR rating ([5]; 0.0625 kg/ha) was 0.0 and the TRZAWR rating ([5]; 0.1250 kg/ha) was 0.0. The TRZAWR rating ([5]; 0.2500 kg/ha) was 2.0, the ZEAMX rating (ZEAMX (Corn, Field); 0.0156 kg/ha) was 0.0 and the ZEAMX rating (ZEAMX (Corn, Field); 0.0313 kg/ha) was 0.0. For the same compound, the ZEAMX rating (ZEAMX (Corn, Field); 0.0625 kg/ha) was 0.0, the ZEAMX rating (ZEAMX (Corn, Field); 0.1250 kg/ha) was 0.0 and the ZEAMX rating (ZEAMX (Corn, Field); 0.2500 kg/ha) was 6.0. For the same compound, the “CYPIR herbicidal effect rating” value (CYPIR (Rice Flatsedge); 0.0313 kg/ha) was 3.0, the “CYPIR herbicidal effect rating” value (CYPIR (Rice Flatsedge); 0.0625 kg/ha) was 3.0 and the “CYPIR herbicidal effect rating” value (CYPIR (Rice Flatsedge); 0.1250 kg/ha) was 5.0. The “CYPIR herbicidal effect rating” value (CYPIR (Rice Flatsedge); 0.2500 kg/ha) was 7.0, the “MOOVA herbicidal effect rating” value (MOOVA (Monochoria); 0.0313 kg/ha) was 9.0 and the “MOOVA herbicidal effect rating” value (MOOVA (Monochoria); 0.0625 kg/ha) was 9.0. For the same compound, the “MOOVA herbicidal effect rating” value (MOOVA (Monochoria); 0.1250 kg/ha) was 9.0, the “MOOVA herbicidal effect rating” value (MOOVA (Monochoria); 0.2500 kg/ha) was 9.0 and the “SAGPY herbicidal effect rating” value ([6]; 0.0313 kg/ha) was 0.0. For the same compound, the “SAGPY herbicidal effect rating” value ([6]; 0.0625 kg/ha) was 0.0, the “SAGPY herbicidal effect rating” value ([6]; 0.1250 kg/ha) was 4.0 and the “SAGPY herbicidal effect rating” value ([6]; 0.2500 kg/ha) was 9.0. For the same compound, the “Herbicidal rating CYPSE” value (CYPSE (Flatsedge); Rate 0.0313 kg/ha, rated 3 to 4 weeks after treatment) was 9.0, the “Herbicidal rating CYPSE” value (CYPSE (Flatsedge); Rate 0.0625 kg/ha, rated 3 to 4 weeks after treatment) was 9.0 and the “Herbicidal rating CYPSE” value (CYPSE (Flatsedge); Rate 0.1250 kg/ha, rated 3 to 4 weeks after treatment) was 9.0. The “Herbicidal rating CYPSE” value (CYPSE (Flatsedge); Rate 0.2500 kg/ha, rated 3 to 4 weeks after treatment) was 9.0.
